Legend:
[1] = system: Corn Earworm (CEW) (Helicoverpa zea); experiment: Bioassay on Corn Earworm (CEW), 128-well diet tray assay; format: in vivo; settings: second instar larvae, five to seven days; for mortality at 50 µg/cm2 / mortality at 0.5 µg/cm2: Helicoverpa zea, 168 h; for mortality at 50 µg/cm2: read-out: Rating CEW (% Control (or Mortality)); for mortality at 0.5 µg/cm2: 0.5 μg/cm2 on artificial diet, read-out: Rating CEW (% Control (or Mortality)), *Tested at 0.5 μg/cm2
Description: (§1) Certain molecules disclosed in this document were tested against BAW and CEW using procedures described in the following examples. In the reporting of the results, the “BAW & CEW Rating Table” was used (See Table Section).
Bioassays on CEW (Helicoverpa zea)
(§2) Trays were covered with a clear self-adhesive cover and held at 25° C., 14:10 light-dark for five to seven days. Percent mortality was recorded for the larvae in each well; activity in the eight wells was then averaged. The results are indicated in the table entitled “Table ABC: Biological Results” (See Table Section).

[2] = system: Beet Armyworm (BAW) (Spodoptera exigua); experiment: Bioassay on Beet Armyworm (BAW), 128-well diet tray assay; format: in vivo; settings: 50 μg/cm2 on artificial diet, second instar larvae, five to seven days; for mortality at 50 µg/cm2: Spodoptera exigua, 168 h, read-out: Rating BAW (% Control (or Mortality))
Description: as §1
Bioassays on BAW (Spodoptera exigua)
as §2

Compound | mortality at 50 µg/cm2 ([1]; 50 μg/cm2 on artificial diet) | mortality at 50 µg/cm2 [2] | Rating CEW (% Control (or Mortality)) ([1]; 50 μg/cm2 on artificial diet) | Rating BAW (% Control (or Mortality)) [2] | mortality at 0.5 µg/cm2 [1]
CC(C)c1ccccc1N/C(S)=N/C(=O)Nc1ccc(-c2ncn(-c3ccc(OC(F)(F)F)cc3)n2)cc1 [Molecule A48] | 50 to 100% | 50 to 100% | – | – | –
Cc1cc(C)c(N/C(S)=N/C(=O)Nc2ccc(-c3ncn(-c4ccc(OC(F)(F)F)cc4)n3)cc2)c(C)c1 [Molecule A49] | 50 to 100% | 50 to 100% | – | – | –
COc1cc(C)c(N/C(S)=N/C(=O)Nc2ccc(-c3ncn(-c4ccc(OC(F)(F)F)cc4)n3)cc2)c(C)c1 [Molecule A50] | 50 to 100% | 50 to 100% | – | – | –
Cc1ccccc1NC(=O)NC(=O)Nc1ccc(-c2ncn(-c3ccc(OC(F)(F)F)cc3)n2)cc1 [Molecule A51] | 50 to 100% | 50 to 100% | – | – | –
CCc1ccccc1NC(=O)NC(=O)Nc1ccc(-c2ncn(-c3ccc(OC(F)(F)F)cc3)n2)cc1 [Molecule A52] | 50 to 100% | 50 to 100% | – | – | –
COc1ccc(NC(=O)NC(=O)Nc2ccc(-c3ncn(-c4ccc(C(F)(F)F)cc4)n3)cc2)c(C)c1 [Molecule A53] | – | – | D (No activity noticed in this bioassay) | D (No activity noticed in this bioassay) | –
CCC(C)c1ccccc1N/C(=N\C(=O)Nc1ccc(-c2ncn(-c3ccc(OC(F)(F)F)cc3)n2)cc1)SCOC(=O)C(C)C (stereo not shown) [Molecule A54] | 50 to 100% | 50 to 100% | – | – | –
CCc1cccc(C)c1N/C(=N\C(=O)Nc1ccc(-c2ncn(-c3ccc(OC(F)(F)F)cc3)n2)cc1)SCOC(=O)C(C)C [Molecule A55] | 50 to 100% | 50 to 100% | – | – | –
COc1ccc(N/C(=N\C(=O)Nc2ccc(-c3ncn(-c4ccc(OC(F)(F)F)cc4)n3)cc2)SCOC(=O)C(C)C)c(C)c1 [Molecule A56] | 50 to 100% | 50 to 100% | – | – | –
CCc1ccccc1N/C(=N\C(=O)Nc1ccc(-c2ncn(-c3ccc(OC(F)(F)F)cc3)n2)cc1)SCOC(=O)C(C)C [Molecule A57] | 50 to 100% | 50 to 100% | – | – | –
CC(C)C(=O)OCS/C(=N/C(=O)Nc1ccc(-c2ncn(-c3ccc(OC(F)(F)F)cc3)n2)cc1)Nc1c(Cl)cccc1Cl [Molecule A58] | 50 to 100% | 50 to 100% | – | – | –
Cc1cc(C)c(N/C(=N\C(=O)Nc2ccc(-c3ncn(-c4ccc(OC(F)(F)F)cc4)n3)cc2)SCOC(=O)C(C)C)c(C)c1 [Molecule A59] | 50 to 100% | 50 to 100% | – | – | –
Cc1ccccc1N/C(=N\C(=O)Nc1ccc(-c2ncn(-c3ccc(OC(F)(F)F)cc3)n2)cc1)SCOC(=O)C(C)C [Molecule A60] | 50 to 100% | 50 to 100% | – | – | –
CC(C)C(=O)OCS/C(=N/C(=O)Nc1ccc(-c2ncn(-c3ccc(OC(F)(F)F)cc3)n2)cc1)Nc1c(F)cccc1F [Molecule A61] | 50 to 100% | 50 to 100% | – | – | –
O=C(/N=C(\S)Nc1ccccc1C1CC1)Nc1ccc(-c2ncn(-c3ccc(OC(F)(F)F)cc3)n2)cc1 [Molecule A63] | – | 50 to 100% | – | – | 50 to 100%
CCCc1ccccc1N/C(S)=N/C(=O)Nc1ccc(-c2ncn(-c3ccc(OC(F)(F)F)cc3)n2)cc1 [Molecule A64] | – | 50 to 100% | – | – | 50 to 100%
CC(C)(C)c1ccccc1N/C(S)=N/C(=O)Nc1ccc(-c2ncn(-c3ccc(OC(F)(F)F)cc3)n2)cc1 [Molecule A67] | – | 50 to 100% | – | – | 50 to 100%
Cc1ccc(N/C(S)=N/C(=O)Nc2ccc(-c3ncn(-c4ccc(OC(F)(F)F)cc4)n3)cc2)c(C)c1 [Molecule A68] | – | 50 to 100% | – | – | 50 to 100%
Cc1cccc(Cl)c1N/C(S)=N/C(=O)Nc1ccc(-c2ncn(-c3ccc(OC(F)(F)F)cc3)n2)cc1 [Molecule A70] | – | 50 to 100% | – | – | 50 to 100%
Cc1ccc(Cl)cc1N/C(S)=N/C(=O)Nc1ccc(-c2ncn(-c3ccc(OC(F)(F)F)cc3)n2)cc1 [Molecule A72] | – | 50 to 100% | – | – | 50 to 100%
Cc1ccc(N/C(S)=N/C(=O)Nc2ccc(-c3ncn(-c4ccc(OC(F)(F)F)cc4)n3)cc2)c(Cl)c1 [Molecule A73] | – | 50 to 100% | – | – | 50 to 100%
Cc1cccc(Cl)c1N1C(=O)CS/C1=N\C(=O)Nc1ccc(-c2ncn(-c3ccc(OC(F)(F)F)cc3)n2)cc1 [Molecule A74] | – | 50 to 100% | – | – | 50 to 100%
Cc1cccc(N2C(=O)CS/C2=N\C(=O)Nc2ccc(-c3ncn(-c4ccc(OC(F)(F)F)cc4)n3)cc2)c1C [Molecule A75] | – | 50 to 100% | – | – | 50 to 100%
Cc1ccc(Cl)cc1N1C(=O)CS/C1=N\C(=O)Nc1ccc(-c2ncn(-c3ccc(OC(F)(F)F)cc3)n2)cc1 [Molecule A76] | – | 50 to 100% | – | – | 50 to 100%

Compound | mortality at 50 µg/cm2 ([1]; 50 μg/cm2 on artificial diet) | mortality at 50 µg/cm2 [2] | Rating CEW (% Control (or Mortality)) ([1]; 50 μg/cm2 on artificial diet) | Rating BAW (% Control (or Mortality)) [2] | mortality at 0.5 µg/cm2 [1]
Cc1c(F)cccc1N/C(S)=N/C(=O)Nc1ccc(-c2ncn(-c3ccc(OC(F)(F)F)cc3)n2)cc1 [Molecule A79] | – | 50 to 100% | – | – | 50 to 100%
CC(C)c1cccc(Cl)c1N/C(S)=N/C(=O)Nc1ccc(-c2ncn(-c3ccc(OC(F)(F)F)cc3)n2)cc1 [Molecule A81] | 50 to 100% | 50 to 100% | – | – | –
CC(C)c1ccc(F)cc1N/C(S)=N/C(=O)Nc1ccc(-c2ncn(-c3ccc(OC(F)(F)F)cc3)n2)cc1 [Molecule A82] | – | 50 to 100% | – | – | 50 to 100%
Cc1ccc(N/C(S)=N/C(=O)Nc2ccc(-c3ncn(-c4ccc(OC(F)(F)F)cc4)n3)cc2)c(C(C)C)c1 [Molecule A84] | – | 50 to 100% | – | – | 50 to 100%
CC(C)c1ccc(F)cc1N1C(=O)CS/C1=N\C(=O)Nc1ccc(-c2ncn(-c3ccc(OC(F)(F)F)cc3)n2)cc1 [Molecule A86] | – | 50 to 100% | – | – | 50 to 100%
Cc1ccc(C(C)C)c(N2C(=O)CS/C2=N\C(=O)Nc2ccc(-c3ncn(-c4ccc(OC(F)(F)F)cc4)n3)cc2)c1 [Molecule A87] | – | 50 to 100% | – | – | 50 to 100%
Cc1ccc(N2C(=O)CS/C2=N\C(=O)Nc2ccc(-c3ncn(-c4ccc(OC(F)(F)F)cc4)n3)cc2)c(C(C)C)c1 [Molecule A88] | – | 50 to 100% | – | – | 50 to 100%
Cc1ccc(F)c(N/C(S)=N/C(=O)Nc2ccc(-c3ncn(-c4ccc(OC(F)(F)F)cc4)n3)cc2)c1 [Molecule A89] | – | 50 to 100% | – | – | 50 to 100%
O=C(/N=C1\SCC(=O)N1c1ccc(Cl)cc1Cl)Nc1ccc(-c2ncn(-c3ccc(OC(F)(F)F)cc3)n2)cc1 [Molecule A92] | – | 50 to 100% | – | – | 50 to 100%
Cc1c(F)cccc1N1C(=O)CS/C1=N\C(=O)Nc1ccc(-c2ncn(-c3ccc(OC(F)(F)F)cc3)n2)cc1 [Molecule A93] | – | 50 to 100% | – | – | 50 to 100%
Cc1ccc(F)c(N2C(=O)CS/C2=N\C(=O)Nc2ccc(-c3ncn(-c4ccc(OC(F)(F)F)cc4)n3)cc2)c1 [Molecule A94] | – | 50 to 100% | – | – | 50 to 100%
CC(C)c1ccccc1N/C(S)=N/C(=O)Nc1ccc(-c2nnc(-c3ccc(OC(F)(F)C(F)(F)F)cc3)o2)cc1 [Molecule A96] | 0% | 50 to 100% | – | – | –
CCc1cccc(C)c1N/C(S)=N/C(=O)Nc1ccc(-c2ncn(-c3ccc(OC(F)(F)F)cc3)n2)cc1 [Molecule A97] | – | 50 to 100% | – | – | 50 to 100%
COc1ccc(N/C(S)=N/C(=O)Nc2ccc(-c3ncn(-c4ccc(OC(F)(F)F)cc4)n3)cc2)c(C)c1 [Molecule A98] | – | 50 to 100% | – | – | 50 to 100%
Cc1cc(C)cc(N/C(S)=N/C(=O)Nc2ccc(-c3ncn(-c4ccc(OC(F)(F)F)cc4)n3)cc2)c1 [Molecule A100] | – | 50 to 100% | – | – | 50 to 100%
O=C(/N=C(\S)Nc1ccccc1Cc1ccccc1)Nc1ccc(-c2ncn(-c3ccc(OC(F)(F)F)cc3)n2)cc1 [Molecule A101] | – | 50 to 100% | – | – | 50 to 100%
CCc1cccc(C)c1N1C(=O)CS/C1=N\C(=O)Nc1ccc(-c2ncn(-c3ccc(OC(F)(F)F)cc3)n2)cc1 [Molecule A103] | – | 50 to 100% | – | – | 50 to 100%
Cc1cc(C)cc(N2C(=O)CS/C2=N\C(=O)Nc2ccc(-c3nnc(-c4ccc(OC(F)(F)F)cc4)o3)cc2)c1 [Molecule A104] | – | 0% | – | – | 50 to 100%
O=C(/N=C1\SCC(=O)N1c1ccccc1Cc1ccccc1)Nc1ccc(-c2ncn(-c3ccc(OC(F)(F)F)cc3)n2)cc1 [Molecule A105] | – | 50 to 100% | – | – | 50 to 100%
Cc1cccc(N/C(S)=N/C(=O)Nc2ccc(-c3ncn(-c4ccc(OC(F)(F)F)cc4)n3)cc2)c1C(C)C [Molecule A106] | – | 50 to 100% | – | – | 50 to 100%
CC(C)c1c(F)cccc1N/C(S)=N/C(=O)Nc1ccc(-c2ncn(-c3ccc(OC(F)(F)F)cc3)n2)cc1 [Molecule A107] | – | 50 to 100% | – | – | 50 to 100%
Cc1cccc(N2C(=O)CS/C2=N\C(=O)Nc2ccc(-c3ncn(-c4ccc(OC(F)(F)F)cc4)n3)cc2)c1C(C)C [Molecule A108] | – | 50 to 100% | – | – | 50 to 100%
CC(C)c1c(F)cccc1N1C(=O)CS/C1=N\C(=O)Nc1ccc(-c2ncn(-c3ccc(OC(F)(F)F)cc3)n2)cc1 [Molecule A109] | – | 50 to 100% | – | – | 50 to 100%
